Results published in patent US5104859A, “Continuous administration of adenosine to reduce pulmonary vascular resistance” (priority 1990, dated 1992).
Where “and” joins values, the source holds several entries; their conditions need not be identical. Equal entries are not always repeated.

Columns and labels:
[1] = test system: systemic arterial blood pressure and central hemodynamics; experiment: Controlled hypotension during anesthesia: central hemodynamics (dipyridamole-pretreated cerebral aneurysm surgery patients); details: for tachyphylaxis: constant infusion rate during hypotension
Procedure: One hour before the operation the patients were premedicated orally with diazepam (10-20 mg.) Atropine (0.5 mg) and droperidol (0.1 mg. per kg.) were given intravenously before induction of anesthesia. Induction was started with thiopental (5 mg. per kg) followed by phenoperidine (1-2 mg), a synthetic opiate with pharmacodymanics resembling fentanyl but with a longer duration of action and 1/10 of its analgesic potency.
Pancuronium bromide (0.1 mg per kg) was given to facilitate endotracheal intubation. Anesthesia was maintained by supplementary doses of phenoperidine and droperidol, as required. […] Phenoperidine was supplemented regularly to prevent the blood pressure from exceeding the preanesthetic level (approx. 1 mg/30-60 min). Controlled hyperventilation was employed with a humidified gas mixture of 60% N2 O in oxygen to maintain PaCO2 values at approximately 30 mmHg (±1.5/SEM). Mannitol (1-1.5 g. per kg) was given routinely at the start of the operation (e.g., 1-2 hours prior to the controlled hypotension). The patients were operated on in the horizontal supine position.
A 1.2-mm plastic cannula was introduced into the left radial artery to monitor systemic arterial blood pressure (MABP) and collect arterial blood. A balloon-tipped, flow-directed, quadruple lumen Swan-Ganz catheter (Model 93A-831-7.5 F, VIP) was inserted percutaneously via the left basilic vein, and its correct position in the pulmonary artery was determined by pressure tracings. The catheter was used for the monitoring of mean right atrial pressure (RAP), mean pulmonary artery pressure (PAP), and mean pulmonary capillary wedge pressure (PCWP) for the determination of cardiac output and collection of mixed venous blood and for the infusion of adenosine. Another plastic cannula was introduced percutaneously, in a retrograde direction, into the right jugular bulb for the collection of blood. The correct position was verified by x-ray.
The ECG was monitored with a standard chest (V5) lead. Heart rate was determined from the R-R interval. Blood pressures were measured by transducers placed at the midthoracic level. Cardiac output (QT) was determined in triplicate according to the thermodilution technique with a cardiac output computer (Edwards Lab, model 9510). Isotonic glucose, 10 ml at 1° C., was used as a thermal indicator. The ECG, heart rate, blood pressures, and thermodilution curves were recorded on a Grass® polygraph.
Measurements and blood samplings were performed immediately before hypotension, as late as possible during hypotension (1-5 min before terminating the infusion) and approximately 30 min after the hypotensive period.
Dipyridamole (5 mg. per ml) was infused iv (0.3-0.4 mg. per kg. over a period of 5-10 min) approximately 20 minutes prior to the induction of controlled hypotension. […] (See Pedersen, J. Chromatogr., 162: 98-103 (1979).
The infusion was started at a rate of 0.01 mg. per kg. per minute, which was doubled at 15 second intervals until the desired MABP level of 40-50 mmHg was reached. […] Serum creatinine was determined before and on two consecutive days after operation. The standard ECG was recorded the day before and the day after operation.
Systemic vascular resistance (SVR) was derived from the formula [formula] and pulmonary vascular resistance (PVR) from the formula [formula]
The statistical significance (control 1 vs. adenosine and control 1 vs. control 2) was determined by Student's t test for paired data. A P value of <0.05 was regarded as significant.

[2] = parameters: species or system human; details: in vivo
Procedure: The mean hypotensive period was 32±8 min.

[3] = Clinical observations during and after cardiopulmonary bypass
Procedure: During cardiopulmonary bypass (CPB), mean arterial blood pressure (MABP) above 70 mmHg was treated with the vasodilator sodium nitroprusside (SNP), except in the final phase or rewarming. CPB was performed with SARN roller pump and a Shiley oxygenator (100A) primed with 2000 ml crystalloid solution (75 mg heparin). The perfusion rate was kept at approximately […] body surface. Moderate hypothermia (25° C.) was induced. Cardioplegia was obtained with Ringer's solution (with added potassium up to 20 mM/1). Heparin (3 mg/kg) was administered as a bolus injection before cannulation. The heparin effect was controlled by measurements of activated clotting time. (Hemocron® Int. Technidyne Corp, USA). […] At the termination of CPB, the heparin effect was antagonized with protamine (c. 1.3 mg/mg heparin). ACT was checked 10-20 min after the protamine injection. ACT values 120 sec were considered satisfactory.
Platelet count (Linson 431 A cell counter) and hematocrit were determined in arterial samples before anesthesia, after thoracotomy, during CPB at 10, 20, 40, 60, 80 and 100 min, 30 min after CPB and on the postoperative day. Platelet counts were expressed in percentage of preanesthesia levels and were corrected for hemodilution. MABP was monitored continuously via a catheter introduced in the radial artery. All patients received hypertonic mannitol (1-1.5 g/kg) during CPB and urine production was calculated as ml/.min of CPB (Table VI).
Postoperative bleeding was measured as the blood loss from the tube drainage from the end of operation until the postoperative morning.
In six cases the plasma adenosine levels were determined by high performance liquid chromatography (HPLC) (Fredholm and Sollevi, J. Physiol. (London), 313: 351-67 (1981) in arterial and in venous (venous lines to the oxygenator) blood. The adenosine metabolites inosine, hypoxanthine and uric acid were also determined by HPLC. The samples were collected as previously described (Sollevi, Acta. Physiol. Scand., 121: 165-72 (1984) at the intervals of 10, 20, 40 and 80 minutes during CPB and 20 minutes after CPB.
Statistical significance (controls v. adenosine group) was determinted with Student's t-test for unpaired data. For significance within the groups the Wilcoxon Rank Sum test was used. p […] 0.05 was regarded as significant.

[4] = human, in vivo
[5] = Control 2, 30 min after hypotension

## Nc1ncnc2c1ncn2[C@@H]1O[C@H](CO)[C@@H](O)[C@H]1O [adenosine]
[1]
  PVR during adenosine: unchanged
  RAP, PAP and PCWP: not influenced
  decrease in MABP: 43±3%
  decrease in SVR: 61±3%
  increase in cardiac output: 44±9%
  increase in heart rate: 9±2 beats per minute
  tachyphylaxis: without evidence of tachyphylaxis
[1]; [5]
  Cardiac output: 5.17 ± 0.54 liters per min.
  Diastolic blood pressure: 71 ± 3 mmHg
  Mean arterial blood pressure: 91 ± 4 mmHg
  Pulmonary artery pressure: 14.7 ± 1.4 mmHg
  Pulmonary capillary wedge pressure: 9.9 ± 1.4 mmHg
  Pulmonary vascular resistance: 0.97 ± 0.15 mmHg per liter min.
  Right atrial pressure: 5.6 ± 0.8 mmHg
  Systolic blood pressure: 130 ± 7 mmHg
  heart rate: 58 ± 3 beats per min.
[1]; after discontinuation of infusion
  rebound hypertension: did not occur
[1]; listed as Adenosine
  tachyphylaxis: absence of tachyphylaxis
[1]; decreased from 16.7
  SVR during adenosine: 6.2 mmHg per liter a minute
[1]; during adenosine
  Cardiac output: 6.86 ± 0.71 liters per min.
  Diastolic blood pressure: 34 ± 2 mmHg
  Mean arterial blood pressure: 46 ± 2 mmHg and 46 mmHg
  Pulmonary artery pressure: 16.5 ± 0.9 mmHg
  Pulmonary capillary wedge pressure: 11.0 ± 1.0 mmHg
  Pulmonary vascular resistance: 0.82 ± 0.08 mmHg per liter min.
  Right atrial pressure: 7.2 ± 0.7 mmHg
  Systolic blood pressure: 78 ± 6 mmHg
  heart rate: 63 ± 3 beats per min.
[1]; increased from 4.9
  cardiac output during adenosine: 6.9 1 per minute
[1]; persistently higher after hypotension
  MABP increase after hypotension vs control period: approximately 10 mmHg
[1]; within
  time to decrease in MABP: 1 to 2 min
  time to restoration of MABP after discontinuation: 1 to 5 min
[2]
  ECG the day after the operation: unchanged
[3]; 100 ug/kg/min, highest such rate in pilot cases
  systemic vasodilation at chosen infusion rate: did not induce systemic vasodilation
[3]; 0.1 mg per kg per min, with range in parentheses
  Preoperative urine production: 4.1 (1.1-9.5) ml/min. CPB
[3]; 500 ml/h in controls, p<0.01
  urine production during CPB: 250 mL/h
[3]; human, in vivo
  MABP during CPB vs placebo: did not differ significantly
  postoperative blood loss vs control: did not differ
[3]; no intergroup difference at end of operation
  MABP after CPB: slightly lower MABP
[3]; one control patient
  patients with transient creatinine elevation: two
[3]; placebo: seven required nitroprusside
  patients requiring vasodilator treatment: No patient
[3]; two postoperative days
  transient elevation of serum creatinine above normal range: 10-20%
[4]
  symptoms in awake patient at higher doses: facial flushing, neck and chest oppression, palpitation and increased rate of respiration
